In patent publication US20240368104A1, “Novel Dialkoxynaphtho[2,3-C]Furan-1(3H)-One Derivatives and Pharmaceutical Composition For Preventing or Treating Respiratory Disease or SARS-COV-2 Infection Disease, Comprising Same” (priority 2021, published 2024):
pEC50, pIC50: −log10 of the molar value. Read-outs that look alike come from different tables or passages of the source.

What was measured:
[1] = tested on: SFTS virus (KADGH; NCCP43261); assay: microbe, parasite or virus in culture; assay type: cell-based, severe fever with thrombocytopenia syndrome virus; parameters: SI (Selectivity Index, CC50/IC50): unit not given here; details: for IC50: Severe fever with thrombocytopenia syndrome virus, Vero, 24 h, read-out: SFTSV inhibition (IC50, μM); for SI (Selectivity Index, CC50/IC50): SFTS virus
in vitro [2] = details: African green monkey
SARS-COV-2 = assay: microbe, parasite or virus in culture; assay type: cell-based; parameters: SI (Selectivity Index, CC50/IC50): unit not given here; details: for SI (Selectivity Index, CC50/IC50): SARS-COV-2, values >50 assumed to be 50; for pIC50: read-out: SARS-COV-2 inhibition (IC50)
[3] = tested on: IL-4 secretion in mouse splenocytes; assay: Inhibition of IL-4 secretion in mouse splenocytes (Concanavalin A, ELISA); assay type: cell-based, Balb/c mice; details: for inhibition at 1 µM: Splenocyte, read-out: IL-4 Secretion inhibitory ability (%); for IL-4 pg/ml: Concanavalin A 5 μg/mL, 48 hours
Description: (§1) The isolated splenocytes were diluted at a concentration of 5×10^6 cells/mL in RPMI medium containing 10% fetal bovine serum (FBS) and antibiotics (penicillin at 100 U/mL, streptomycin at 100 μg/mL), distributed at 500 μl/well in a 24 well plate, and cultured in a 37° C., 5% CO2 incubator for 48 hours. When splenocytes were distributed, an immune reaction was induced by treating with 5 μg/mL of Concanavalin A, and at this time, the splenocytes were treated with the materials selected in Experimental Example 3 at a concentration of 1 uM. First, in order to measure Th2 cytokines, the medium was collected from the 24-well plate, and only the supernatant was separated through centrifugation at 800×g for five minutes, after which 100 μl of the supernatant per well was used in an enzyme-linked immunosorbent assay (ELISA, Komabiotech) experiment so as to measure a degree of secretion of Th2 cytokines IL-4 and IL-5. A degree of inhibition against secretion of cytokines by the test material was calculated using [Equation 2] below, and the measurement results are shown in Table 7.

[4] = tested on: IL-4 secretion in RBL-2H3 cells; assay: Inhibition of IL-4 secretion in RBL-2H3 cell line (A23187 induced, ELISA); assay type: cell-based; details: Rattus norvegicus; for pIC50: RBL-2H3 cells, 1 uM A23187, read-out: IL-4 secretion inhibition IC50; for IC50: RBL-2H3, read-out: IL-4 secretion inhibition IC50 (μM)
Description: The RBL-2H3 cell line was purchased from the American Type Culture Collection (ATCC #CRL-2256). The cells were diluted at a concentration of 1×10^6 cells/ml in RPMI medium containing 15% fetal bovine serum (FBS) and antibiotics (penicillin at 100 U/mL, streptomycin at 100 μg/mL), distributed at 200 μl/well in a 48 well plate, and cultured in a 37° C., 5% CO2 incubator for 24 hours. In 24 hours later, the cells were pre-treated one hour before with a test drug and AS1517499 (STAT6 inhibitor) as a control drug, and treated with 1 uM of A23187 for six hours to induce an immune response, after which a group not containing the drug was used as a control. In order to measure a secretion level of cytokine IL-4, the medium was collected from the well plate and centrifuged at 125×g for five minutes to remove a residue, and 100 μl of the medium was used to measure an amount of IL-4 secreted from the cells by using IL-4 enzyme-linked immunosorbent assay (ELISA, Komabiotech). A degree of inhibition of cell secretion by the drug was calculated using [Equation 1] below.
First of all, 288 kinds of materials were treated at a single concentration of 10 uM so as to select 60 kinds of materials which inhibit secretion of IL-4 by 75% or more (FIG. 19).
After that, a repeated experiment and a two-concentration (10, 3 uM) test were performed using the selected 60 kinds of materials so as to select the final eight kinds, and the IC50 value was calculated and shown in Table 3.

[5] = tested on: IL-5 secretion in mouse splenocytes; assay: Inhibition of IL-5 secretion in mouse splenocytes (Concanavalin A, ELISA); assay type: cell-based, Balb/c mice; details: for inhibition at 1 µM: Splenocyte, read-out: IL-5 Secretion inhibitory ability (%); for IL-5 pg/ml: Concanavalin A 5 μg/mL, 48 hours
Description: as §1

in vitro [6] = details: African green monkey; remark: listed apart in the source
[7] = tested on: Balb/c mouse asthma model; assay: Balb/c mouse asthma model (ovalbumin), BALF IgE, IL-4, IL-5 and inflammatory cells; assay type: in vivo, Balb/c mice
Description: In detail, five-week-old Balb/c mice were purchased and acclimated for one week, after which the mice were sensitized systemically by intraperitoneal injection with 0.1% ovalbumin (OVA 1 mg/mL, Al(OH)3 20 mg/mL) at 100 μl/mouse on days 0 and 14 from a week after the acclimation. From a week (day 21) after a final systemic sensitization, the compound of Example 73 was orally administered everyday at 10 mg/kg to mice for ten days, and dexamethasone was intraperitoneally administered at 1 mg/kg as a positive control group. In one hour later, 0.2% ovalbumin solution was sprayed with a nebulizer (PARIBoy SX, GmbH, Germany) so as to be inhaled for one hour. In five hours after the final sensitization (day 30), an autopsy was performed, and 1 mL of phosphate buffer solution was flowed through a tracheotomy to collect a bronchoalveolar lavage fluid (BALF). The collected BALF was centrifuged at 3000 rpm for ten minutes, and the supernatant was used to measure bioactive materials (IL-4, IL-5), and pellets were used to measure the number of inflammatory cells. In addition, an IgE concentration in the isolated BALF was measured using IgE enzyme-linked immunosorbent assay (ELISA, Komabiotech), and IL-4 and IL-5 were measured using their respective enzyme-linked immunosorbent assay (ELISA, IL-4: Enzo #ADI-900-043, IL-5: R&D system #M5000).
The results are shown in Table 8 and FIG. 22, and each secretion inhibitory activity was calculated in the same manner as in [Equation 2] of Experimental Example 4.
In addition, the BALF pellets were re-dissolved by adding 0.5 mL of phosphate buffer solution, and then 0.1 mL for each thereof was added to a 96-well plate and centrifuged at 800 rpm for five minutes to attach cells to the bottom (three wells per sample). Then, the cells were stained with Diff Quik staining solution (Sysmex) and the number of cells was measured with […].
The results were shown in FIG. 21, the SPSS program was used for statistical processing, the Levene test was performed for equal-variance test, and the significance test was performed through one-way ANOVA.

dengue virus = assay: Inhibitory effect against dengue virus in Vero E6 cells; assay type: cell-based
Description: On the next day, a compound having a concentration of 0.0625 micro M was prepared from a compound having a concentration of 3 micro M and treated to Vero E6 cells, and then the cells treated with the compound were immediately infected with dengue virus (0.01 MOI) and cultured at 37° C. for five days.

Zika virus = assay: Inhibitory effect against Zika virus in Vero cells; assay type: cell-based
[8] = Severe acute respiratory syndrome coronavirus 2, Vero cells, 24 hours infection
[9] = mouse splenocytes, compound 1 μM
[10] = Example 73 10 mg/kg oral, dexamethasone 1 mg/kg intraperitoneal
[11] = Mean ± S.D., n = 5, Example 73 10 mg/kg oral, dexamethasone 1 mg/kg intraperitoneal, ten days
[12] = Severe acute respiratory syndrome coronavirus 2, Vero, 24 h

| Compound | IC50 [1] | SI (Selectivity Index, CC50/IC50) (SARS-COV-2) | pIC50 (SARS-COV-2; [8]) | inhibition at 1 µM [3, 9] | IL-4 pg/ml [3, 9] | pIC50 [4] | inhibition at 1 µM [5, 9] | IL-5 pg/ml [5, 9] | CC50 (in vitro [6]) | pIC50 (SARS-COV-2; [12]) | SI (Selectivity Index, CC50/IC50) [1] | CC50 at 24 h (in vitro [2]) | also measured |
| --- | --- | --- | --- | --- | --- | --- | --- | --- | --- | --- | --- | --- | --- |
| CCN(CC)CCCC(C)Nc1ccnc2cc(Cl)ccc12 (stereo not shown) [Chloroquine] | 21.8 µM | – | – | – | – | – | – | – | – | – | – | – | CC50 (in vitro [2]): 104 µM |
| CCC(C)CN(C)c1ncc(-c2c3c(cc4cc(OC)c(OC)cc24)COC3=O)cn1 (stereo not shown) [Example 65, 6,7-dimethoxy-9-(2-(methyl(2-methylbutyl)amino)pyrimidin-5-yl)naphtho[2,3-c]furan-1(3H)-one] | – | 19.30 | 5.59 | 99.5% | 1.5 pg/mL | 5.66 | 73% | 25.2 pg/mL | > 50 µM | – | – | – | – |
| CCCCN(CCCC)c1ncc(-c2c3c(cc4cc(OC)c(OC)cc24)COC3=O)cn1 [Example 73, 9-(2-(dibutylamino)pyrimidin-5-yl)-6,7-dimethoxynaphtho[2,3-c]furan-1(3H)-one] | – | 6.53 | 5.12 | 74.7% | 86.3 pg/mL | 5.50 | 20.4% | 74.1 pg/mL | > 50 µM | – | – | – | number of eosinophils in BALF ([7]; 10 mg/kg oral, ten days): significantly reduced; BALF IL-4 Secretion inhibitory ability % [7, 10]: (51.3%); BALF IL-5 Secretion inhibitory ability % [7, 10]: (33.7%); BALF IgE Secretion inhibitory ability % [7, 10]: (24.3%); BALF IL-4 pg/ml [7, 11]: 64.9 ± 35.025 pg/mL; BALF IL-5 pg/ml [7, 11]: 20.7 ± 13.46 pg/mL; BALF IgE [7, 11]: 10.5 ± 3.282 ng/mL |
| COc1cc2cc3c(c(-c4cnc(N(C)C5CCCC5)nc4)c2cc1OC)C(=O)OC3.Cl [Example 84, 9-(2-(cyclopentyl(methyl)amino)pyrimidin-5-yl)-6,7-dimethoxynaphtho[2,3-c]furan-1(3H)-one hydrochloride] | – | 237.53 | – | – | 1.1 pg/mL | – | – | 11.2 pg/mL | > 50 µM | 6.68 | – | – | inhibition at 1 µM ([3]; Mus musculus): 99.7%; IC50 [4]: 5.23 µM; inhibition at 1 µM ([5]; Mus musculus): 88% |
| COc1cc2cc3c(c(-c4cnc(N(CC(C)C)CC(C)C)nc4)c2cc1OC)C(=O)OC3.Cl [Example 86, 9-(2-(diisobutylamino)pyrimidin-5-yl)-6,7-dimethoxynaphtho[2,3-c]furan-1(3H)-one hydrochloride] | – | 0.75 | – | – | 96.0 pg/mL | – | – | 71.0 pg/mL | 19.2 µM | 4.59 | – | – | inhibition at 1 µM ([3]; Mus musculus): 71.8%; IC50 [4]: 2.21 µM; inhibition at 1 µM ([5]; Mus musculus): 23.7% |
| COc1cc2cc3c(c(-c4cc5c(cc4OC(=O)c4ccccn4)OCO5)c2cc1OC)C(=O)OC3 [Example 169, 6-(6,7-dimethoxy-3-oxo-1,3-dihydronaphtho[2,3-c]furan-4-yl)benzo[d][1,3]dioxol-5-yl picolate] | – | 40.73 | 5.91 | 86.3% | 46.7 pg/mL | 5.63 | 27.9% | 67.1 pg/mL | > 50 µM | – | – | – | – |
| COc1cc2cc3c(c(-c4ccc(N(C)C5Cc6ccccc6C5)nc4)c2cc1OC)C(=O)OC3 [Example 194, 9-(6-((2,3-dihydro-1H-indan-2-yl)(methyl)amino)pyridin-3-yl)-6,7-dimethoxynaphtho[2,3-c]furan-1(3H)-one] | 0.965 µM | 33.63 | 5.83 | – | – | – | – | – | > 50 µM | – | 48785 | 47100 µM | – |
| COc1cc2cc3c(c(-c4ccc5c(c4)OC(F)(F)O5)c2cc1OC)C(=O)OC3 [Example 221, 9-(2,2-difluorobenzo[d][1,3]dioxol-5-yl)-6,7-dimethoxynaphtho[2,3-c]furan-1(3H)-one] | 0.04 µM | 275.32 | 6.74 | – | – | – | – | – | > 50 µM | – | 11472 | 457 µM | protection from cytopathic effects induced by dengue virus (dengue virus): protects from cytopathic effects; pEC50 (dengue virus; Dengue virus, Vero C1008, 120 h, 0.01 MOI, five days, read-out: Dengue virus Inhibitory ability (EC50)): 7.10; protection from cytopathic effects induced by Zika virus (Zika virus): protects from cytopathic effects; pEC50 (Zika virus; Zika virus, 120 h, 0.02 MOI, five days, read-out: Zika virus Inhibitory ability (EC50)): 6.32 |
| COc1cc2cc3c(c(-c4ccc(N(C)c5cccc(C#N)c5)nc4)c2cc1OC)C(=O)OC3.Cl [Example 237, 3-((5-(6,7-dimethoxy-3-oxo-1,3-dihydronaphtho[2,3-c]furan-4-yl)pyridin-2-yl)(methyl)amino)benzonitrile] | 0.794 µM | 61.98 | – | – | – | – | – | – | > 50 µM | 6.09 | 1277 | 1020 µM | – |
| NC(=O)c1ncn([C@@H]2O[C@H](CO)[C@@H](O)[C@H]2O)n1 [Ribavirin] | 64.8 µM | – | – | – | – | – | – | – | – | – | – | 1270 µM | – |
